Assay results as given in PMC4840262 (Mutagenesis, 2015).
Where two headings read alike, the source gives them in different places. Marks after values point to notes of the source that are not given here.

Experiments:
[1] = in vitro; conditions: male, human, Cytotoxicity (%)
[2] = tested on: mouse bone marrow; conditions: in vivo, po; cited from earlier work
[3] = tested on: rats; conditions: formulated diet, doses equivalent to a maximum of 20mg/kg in rats; cited from earlier work
[4] = Wistar rat, oral dose of 40mg/kg, microsuspension, after 4h; cited from earlier work
[5] = tested on: human lymphocytes
[6] = tested on: C3H/10T1/2 Cl 8 mouse embryo fibroblasts; conditions: cited from earlier work
[7] = tested on: Bacillus subtilis; conditions: cited from earlier work
[8] = tested on: bacteria (Ames test); conditions: cited from earlier work
[9] = tested on: mice; conditions: formulated diet, doses equivalent to a maximum of 30mg/kg in mice; cited from earlier work
[10] = tested on: Saccharomyces cerevisiae; conditions: cited from earlier work
[11] = tested on: Drosophila melanogaster; conditions: in vivo; cited from earlier work
[12] = female, Han Wistar [Cr1 WI(Han)], rat, in vivo, po, 400 mg/kg
[13] = assay type: in vivo; conditions: rat, plasma, po
[14] = tested on: human lymphocytes; remark: listed apart in the source
[15] = tested on: CHL cells; conditions: cited from earlier work
[16] = tested on: CHO-K1 cells; conditions: cited from earlier work
[17] = tested on: mice; conditions: mouse, in vivo; cited from earlier work
[18] = tested on: bone marrow polychromatic erythrocytes (PCE); conditions: female, rat, in vivo; for % Micronucleated PCE / % PCE: Han Wistar [Crl:WI(Han)], po
[19] = humans, 100mg once or twice a day for 3 days, original commercial oral GI formulation; cited from earlier work
[20] = tested on: CHO-K1 cells; conditions: Chinese hamster

SMILES: COC(=O)Nc1nc2cc(C(=O)c3ccc(F)cc3)ccc2[nH]1 [Flubendazole, flubendazole]
- cytotoxicity ([1]; 0.050 µg/ml): 0%
- cytotoxicity ([1]; 0.075 µg/ml): 0%
- cytotoxicity ([1]; 0.100 µg/ml): 0%
- cytotoxicity ([1]; 0.250 µg/ml): 0%
- cytotoxicity ([1]; 0.5 µg/ml): 4%
- cytotoxicity ([1]; 0.500 µg/ml): 0%
- cytotoxicity ([1]; 1.0 µg/ml): 0%
- cytotoxicity ([1]; 1.00 µg/ml): 16%
- cytotoxicity ([1]; 2.0 µg/ml): 0%
- cytotoxicity ([1]; 3.0 µg/ml): 0%
- cytotoxicity ([1]; 6.0 µg/ml): 0%
- cytotoxicity ([1]; 6.5 µg/ml): 43%
- cytotoxicity ([1]; 7.5 µg/ml): 8%
- cytotoxicity ([1]; 9.0 µg/ml): 26%
- cytotoxicity ([1]; 10.0 µg/ml): 0%
- cytotoxicity ([1]; 12.0 µg/ml): 0%
- cytotoxicity ([1]; 14.0 µg/ml): 14%
- cytotoxicity ([1]; 16.0 µg/ml): 4%
- cytotoxicity ([1]; 19.0 µg/ml): 7%
- cytotoxicity ([1]; 25.0 µg/ml): 12%
- Bone marrow micronucleus test result (in words) [2]: negative
- Carcinogenicity (in words) [3]: Neither showed evidence of carcinogenicity
- Plasma levels of flubendazole [4]: 81 ng/mL
- Mode of action of micronucleus induction (in words) [5]: acts as an aneugen
- % micronuclei with a centromere ([5]; 7.5 μg/ml): 80%
- % micronuclei without a centromere ([5]; 7.5 μg/ml): 20%
- % micronuclei with a centromere ([5]; 9.0 μg/ml): 88%
- % micronuclei without a centromere ([5]; 9.0 μg/ml): 12%
- % micronuclei with a centromere ([5]; 16 μg/ml): 83%
- % micronuclei without a centromere ([5]; 16 μg/ml): 17%
- % micronuclei with a centromere ([5]; 25 μg/ml): 86%
- % micronuclei without a centromere ([5]; 25 μg/ml): 14%
- %C− micronuclei ([5]; male, human): 30%
- Morphological transformation (in words) [6]: morphological transformation
- Induction of DNA repair (in words) [7]: negative
- Ames bacterial mutation test result (in words) [8]: negative
- Carcinogenicity (in words) [9]: Neither showed evidence of carcinogenicity
- Mutation test result (in words) [10]: negative
- Mutation test result (in words) [11]: negative
- Mean plasma concentration [12]: 610 ng/mL
- AUC(0-t) ([13]; 65 mg/kg): 15100 ng·h/mL
- Cmax ([13]; 65 mg/kg): 910 ng/mL
- AUC(0-t) ([13]; 130 mg/kg): 16500 ng·h/mL
- Cmax ([13]; 130 mg/kg): 900 ng/mL
- AUC(0-t) ([13]; 402 mg/kg): 24900 ng·h/mL
- Cmax ([13]; 402 mg/kg): 1330 ng/mL
- Mean MNBN cell frequency (%) ([14]; 0.050 µg/ml): 0.10%
- Mean MNBN cell frequency (%) ([14]; 0.075 µg/ml): 0.30%
- Mean MNBN cell frequency (%) ([14]; 0.100 µg/ml): 0.55%
- Mean MNBN cell frequency (%) ([14]; 0.250 µg/ml): 1.15* %
- Mean MNBN cell frequency (%) ([14]; 0.5 µg/ml): 1.75* %
- Mean MNBN cell frequency (%) ([14]; 0.500 µg/ml): 3.15* %
- Mean MNBN cell frequency (%) ([14]; 1.0 µg/ml): 3.38* %
- Mean MNBN cell frequency (%) ([14]; 1.00 µg/ml): 4.25* %
- Mean MNBN cell frequency (%) ([14]; 2.0 µg/ml): 0.05%
- Mean MNBN cell frequency (%) ([14]; 3.0 µg/ml): 5.15* %
- Mean MNBN cell frequency (%) ([14]; 6.0 µg/ml): 0.85* %
- Mean MNBN cell frequency (%) ([14]; 6.5 µg/ml): 10.10* %
- Fold increases in MN over concurrent vehicle control ([14]; 7.5 μg/ml): 7.2
- Mean MNBN cell frequency (%) ([14]; 7.5 μg/ml): 1.65* %
- Fold increases in MN over concurrent vehicle control ([14]; 9.0 μg/ml): 28.5
- Mean MNBN cell frequency (%) ([14]; 9.0 μg/ml): 6.55* %
- Mean MNBN cell frequency (%) ([14]; 10.0 µg/ml): 0.25%
- Mean MNBN cell frequency (%) ([14]; 12.0 µg/ml): 0.20%
- Mean MNBN cell frequency (%) ([14]; 14.0 µg/ml): 0.65* %
- Fold increases in MN over concurrent vehicle control ([14]; 16 μg/ml): 3.6
- Mean MNBN cell frequency (%) ([14]; 16.0 µg/ml): 0.90* %
- Mean MNBN cell frequency (%) ([14]; 19.0 µg/ml): 0.55* %
- Fold increases in MN over concurrent vehicle control ([14]; 25 μg/ml): 11.5
- Mean MNBN cell frequency (%) ([14]; 25.0 µg/ml): 2.88* %
- Lowest dose where a statistically significant increase in micronuclei was observed ([14]; male, human): 0.25 µg/mL
- Lowest non-significant doses (micronuclei) ([14]; male, human): 0.1 µg per ml
- Lowest tested concentration, statistically significant increases in micronuclei evident ([14]; male, human): 0.5 µg/mL
- Polyploidy (in words) [15]: induce polyploidy
- Td (threshold dose) [16]: 0.028 µg/mL
- Td–L–CI (lower confidence Td) [16]: 0.025 µg/mL
- Induction of dominant lethal mutations (in words) [17]: negative
- Revised RfD ([18]; Han Wistar [Cr1 WI(Han)]): 140.62 mg/subject/day
- % Micronucleated PCE ([18]; 65 mg/kg): 1.35* %
- % PCE ([18]; 65 mg/kg): 31.74%
- % Micronucleated PCE ([18]; 130 mg/kg): 2.31* %
- % PCE ([18]; 130 mg/kg): 33.00%
- % Micronucleated PCE ([18]; 400 mg/kg): 1.94* %
- Plasma Cmax [19]: < 1 ng/mL
- BMD10 [20]: 0.019 µg/mL
- BMDL10 [20]: 0.013 µg/mL
